# Legend:
# [1] = system: Caco-2 cells; assay: Preventive effects of 2'-FL on glycocalyx damage caused by LPS (qPCR of glycocalyx development genes); format: cell-based, human; details: for transcriptional level of gpc1: then 100 ng/mL LPS 24 h; for transcriptional level of ext2 / transcriptional level of has2 / transcriptional level of has3 / transcription level of has1 / transcriptional level of ext1: then LPS
# Experimental: (§1) Caco-2 cell culture: human colon adenocarcinoma cells Caco-2 were cultured in MEM complete medium containing 20% high-quality fetal bovine serum, grown in 25 cm^2 cell culture flasks and incubated in a carbon dioxide incubator at 37 °C, 5% CO2, and 95% relative humidity. The culture medium was changed every one or two days. When the cells reach 80%-90% confluence, the cells were digested with 0.25% trypsin digestion solution and subcultured at a ratio of 1:3.
# (§2) qPCR kit manufacturer: Nanjing Vazyme Biotechnology Co., Ltd.; Catalog number: AceQ Universal U+ Probe Master Mix V2; amplification program: step 1: 37 °C for 2 min, and cycle number 1; step 2: 95 °C for 5 min, and cycle number 1; and step 3: 95 °C for 10 s, 60°C for 30 s, and cycle number 45.
# 2.1 Experiments: Caco-2 cells were adjusted to a density of 1 × 10^5 cells/cm^2 and inoculated in 24-well plates. According to groups, 2'-FL at concentrations of 0.6 mg/mL, 1.2 mg/mL, and 2.4 mg/mL was added to MEM complete medium, respectively. After incubation for 3 days, culture supernatant was removed, and fresh MEM complete medium with a final concentration of 100 ng/mL LPS was added and they are co-incubated for 24 h. Cells with added LPS but without 2'-FL were designated as a model group, and cells without added LPS or 2'-FL were designated as a blank group. Total RNA was extracted from the cells and reverse transcribed. Transcriptional levels of genes related to glycocalyx development, including glypican 1 (gpc1), hyaluronic acid synthases (has1, has2 and has3), and exostosin glycosyltransferases (ext1 and ext2), in the Caco-2 cells were measured by qPCR.
# [2] = system: Caco-2 cells; assay: Effects of 2'-FL on glycocalyx development in intestinal epithelial cells (qPCR of glycocalyx development genes); format: cell-based, human
# Experimental: as §1
# 1.1 Experiments: Caco-2 cells were adjusted to a density of 1 × 10^5 cells/cm^2 and inoculated in 24-well plates. According to groups, 2'-FL at concentrations of 0.6 mg/mL, 1.2 mg/mL, and 2.4 mg/mL was added to MEM complete medium, respectively. After incubation for 3 days, MEM medium was served as a blank control. Total RNA was extracted from the cells and reverse transcribed. Transcriptional levels of genes related to glycocalyx development, including glypican 1 (gpc1), hyaluronic acid synthases (has1, has2 and has3), and exostosin glycosyltransferases (ext1 and ext2) in the Caco-2 cells were measured by qPCR. qPCR primer sequences were shown in Table 1.
# as §2
# [3] = 2.4 mg/mL 2'-FL, compared to the model group, p < 0.05
# [4] = different concentrations of 2'-FL 3 days, compared with the blank group
# [5] = prevention group with different concentrations of 2'-FL, vs the blank group, p > 0.05
# [6] = summary statement, 0.6mg/mL-1.2 mg/mL
# [7] = summary statement, 0.6mg/mL-2.4 mg/mL
# [8] = all three concentrations of 2'-FL (0.6, 1.2, 2.4 mg/mL), 3 days, vs blank control, p < 0.05
# [9] = of 0.6, 1.2, 2.4 mg/mL tested, effect decreases with increasing concentration
structure (smiles),measurement,setting,value
"C[C@@H]1O[C@@H](O[C@H]2[C@H](O[C@H]3[C@H](O)[C@@H](O)C(O)O[C@@H]3CO)O[C@H](CO)[C@H](O)[C@@H]2O)[C@@H](O)[C@H](O)[C@@H]1O (stereo partly shown) [2'-FL, 2'-fucosyllactose]",transcriptional level of gpc1,"[1]; 0.6 mg/mL 2'-FL 3 days, compared with the blank group",significantly upregulate
same,transcriptional level of gpc1,"[1]; 1.2 mg/mL 2'-FL 3 days, compared with the blank group",significantly upregulate
same,transcriptional level of ext2,"[1]; 1.2 mg/mL 2'-FL, p<0.05",significantly upregulate
same,transcriptional level of has2,[1]; [3],significantly upregulated
same,transcriptional level of has3,[1]; [3],significantly upregulated
same,transcription level of has1,"[1]; 2.4 mg/mL 2'-FL, compared with the model group",significantly upregulated
same,transcriptional level of ext2,"[1]; 2.4 mg/mL 2'-FL, p<0.05",significantly upregulate
same,transcriptional level of ext1,[1]; [4],still upregulated
same,transcriptional level of ext2,[1]; [4],still upregulated
same,transcriptional level of gpc1,"[1]; different concentrations of 2'-FL (0.6, 1.2, 2.4 mg/mL) 3 days, compared with the blank group",still upregulated
same,transcriptional level of has2,[1]; [5],no significant differences
same,transcriptional level of has3,[1]; [5],no significant differences
same,transcription level of has1,"[1]; prevention groups with different concentrations of 2'-FL (0.6, 1.2, 2.4 mg/mL), compared with the blank group, p < 0.05",significantly downregulated
same,downregulation of the transcriptional level of gpc1 caused by LPS,[1]; [6],significantly prevent downregulation
same,downregulation of the transcriptional level of ext1 caused by LPS,[1]; [7],significantly prevent downregulation
same,downregulation of the transcriptional level of ext2 caused by LPS,[1]; [7],significantly prevent downregulation
same,downregulation of the transcriptional level of has2 caused by LPS,[1]; [7],significantly prevent downregulation
same,downregulation of the transcriptional level of has3 caused by LPS,[1]; [7],significantly prevent downregulation
same,transcriptional level of ext1,"[1]; three concentrations of 2'-FL (0.6, 1.2, 2.4 mg/mL), p<0.05",significantly upregulate
same,transcriptional level of ext1 mRNA,[2]; [8],significantly upregulate
same,transcriptional level of ext2 mRNA,[2]; [8],significantly upregulate
same,transcriptional level of gpc1 mRNA,[2]; [8],significantly upregulate
same,transcriptional level of has1 mRNA,[2]; [8],significantly upregulate
same,transcriptional level of has2 mRNA,[2]; [8],significantly upregulate
same,transcriptional level of has3 mRNA,[2]; [8],significantly upregulate
same,concentration at which the upregulation effect on the transcriptional level of ext1 reaches a maximum,[2]; [9],0.6 mg/mL
same,concentration at which the upregulation effect on the transcriptional level of ext2 reaches a maximum,[2]; [9],0.6 mg/mL
same,concentration at which the upregulation effect on the transcriptional level of has1 reaches a maximum,[2]; [9],0.6 mg/mL
same,concentration at which the upregulation effect on the transcriptional level of has2 reaches a maximum,[2]; [9],0.6 mg/mL
same,concentration at which the upregulation effect on the transcriptional level of has3 reaches a maximum,[2]; [9],0.6 mg/mL
same,concentration at which the upregulation effect on the transcriptional level of gpc1 reaches a maximum,"[2]; of 0.6, 1.2, 2.4 mg/mL tested, first increasing and then decreasing",1.2 mg/mL
same,transcriptional level of ext1,"[2]; summary statement, 0.6 mg/mL",significantly upregulate
same,transcriptional level of ext2,"[2]; summary statement, 0.6 mg/mL",significantly upregulate
same,transcriptional level of has1,"[2]; summary statement, 0.6 mg/mL",significantly upregulate
same,transcriptional level of has2,"[2]; summary statement, 0.6 mg/mL",significantly upregulate
same,transcriptional level of has3,"[2]; summary statement, 0.6 mg/mL",significantly upregulate
same,transcriptional level of gpc1,[2]; [6],significantly upregulate

# — patent publication EP4809830A1, “USE OF 2'-FUCOSYLLACTOSE IN PROMOTING INTESTINAL DEVELOPMENT AND PREVENTING INTESTINAL DAMAGE” (Ausnutria Dairy (China) Co., Ltd., priority 2024, dated 2025)
